# According to PMC8290022, “Electrophysiological characterization of a diverse group of sugar transporters from Trichoderma reesei” (Scientific Reports, 2021):
# Target: T1, STR3 (Trire2_62380) (Trichoderma reesei, UniProt G0RKF0)
# T1 construct: gene TRIREDRAFT_62380
# Test: two-electrode voltage clamp in Xenopus oocytes, transport current
# Format: cell-based
# Settings: pH 5.5, -50 mV, H+ symport
# T1 sequence (G0RKF0 entry or part of it): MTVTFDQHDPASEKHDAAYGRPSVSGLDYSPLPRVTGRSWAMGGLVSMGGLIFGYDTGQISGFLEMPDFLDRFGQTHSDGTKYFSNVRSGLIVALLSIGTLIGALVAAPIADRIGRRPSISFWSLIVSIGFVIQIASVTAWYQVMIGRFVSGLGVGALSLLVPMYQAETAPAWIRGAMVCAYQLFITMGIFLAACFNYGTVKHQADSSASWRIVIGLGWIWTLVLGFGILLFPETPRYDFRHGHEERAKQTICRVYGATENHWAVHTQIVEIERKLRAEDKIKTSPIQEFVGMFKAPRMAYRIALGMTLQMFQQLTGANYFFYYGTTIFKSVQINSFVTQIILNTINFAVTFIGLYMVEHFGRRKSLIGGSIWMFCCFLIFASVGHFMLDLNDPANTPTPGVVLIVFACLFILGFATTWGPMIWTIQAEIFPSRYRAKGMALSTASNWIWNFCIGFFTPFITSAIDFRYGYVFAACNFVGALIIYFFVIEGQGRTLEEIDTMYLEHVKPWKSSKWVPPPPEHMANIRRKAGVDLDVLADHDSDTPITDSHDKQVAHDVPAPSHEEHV
row,Km [µM],SMILES
1,186 ± 18.9,OC[C@H]1OC(O)[C@@H](O)[C@@H](O)[C@@H]1O (stereo partly drawn) [D-mannose]
2,57.9 ± 17.7,OC[C@H]1OC(O)[C@H](O)[C@@H](O)[C@@H]1O (stereo partly drawn) [D-glucose]
3,1110 ± 490,OC[C@H]1OC(O)[C@H](O)[C@@H](O)[C@H]1O (stereo partly drawn) [D-galactose]
